Experimental data from PMC11434026, “Development and Validation of an LC-MS/MS Assay for the Quantitation of MO-OH-Nap Tropolone in Mouse Plasma: Application to In Vitro and In Vivo Pharmacokinetic Studies” (Molecules, 2024).

Experiments:
[1] = In vitro metabolic stability in rat liver microsomes; assay type: in vitro ADME; conditions: RLM
Protocol: Metabolic stability was assessed using mouse, rat, and human liver microsomes (XenoTech, LLC, Lenexa, KS, USA) for phase I metabolism. Briefly, A reaction solution was prepared by mixing […] of PBS (100 mM, pH 7.4), 25 µL of microsomal protein (20 mg/mL), MgCl2 (5 µL; 10 mM), and 50 µL of NADPH (2 mM). The final volume (0.5 mL) was pre-incubated for 10 min in a 37 °C water bath at 60 rpm. An aliquot of MO-OH-Nap (2 µL from 1 µg/mL stock) was spiked into the above solution to initiate the reaction. Aliquots of (50 µL) were collected at time intervals (0, 5, 15, 20, 30, 45, and 60 min) and quenched with 300 µL of ACN, […]. Afterwards, 10 µL of IS stock (1.0 µg/mL) was spiked in each sample then vortexed (5 min) and centrifuged at 10,800 rpm (13,000× g) for 15 min. Samples were vortexed and centrifuged at 10,800 rpm (13,000× g) for 15 min, the supernatant was collected and transferred to an HPLC vial and 10 µL were injected into the LC-MS/MS system. Testosterone and diclofenac were used as positive and negative controls to ensure that liver microsomes and incubation conditions were appropriate for conducting metabolism studies.

[2] = Stability in mouse plasma at storage and use conditions; assay type: physicochemical
Protocol: The chemical stability of MO-OH-Nap and IS in plasma samples were assessed at LQC, MQC, and HQC concentrations, n = 3, under the following storage conditions: bench-top storage (up to 6 h at room temperature, 21 ± 0.5 °C), three freeze–thaw cycles (−80 ± 0.5 °C to room temperature for 30 min, back to −80 ± 0.5 °C then stored for 24 h, the cycle was repeated twice more), long-term storage (12 months at −80 ± 0.5 °C), and 24 h auto-sampler stability of extracted samples (at 4 ± 0.5 °C).

[3] = autosampler 4 °C, up to 24 h, extracted samples, HQC 375 ng/mL
[4] = autosampler 4 °C, up to 24 h, extracted samples, LQC 3 ng/mL
[5] = autosampler 4 °C, up to 24 h, extracted samples, MQC 200 ng/mL
[6] = bench-top 21 °C, up to 6 h, HQC 375 ng/mL
[7] = bench-top 21 °C, up to 6 h, LQC 3 ng/mL
[8] = bench-top 21 °C, up to 6 h, MQC 200 ng/mL
[9] = freeze-thaw −80 °C, 3 cycles, HQC 375 ng/mL
[10] = freeze-thaw −80 °C, 3 cycles, LQC 3 ng/mL
[11] = freeze-thaw −80 °C, 3 cycles, MQC 200 ng/mL
[12] = long-term −80 °C, 12 months, HQC 375 ng/mL
[13] = long-term −80 °C, 12 months, LQC 3 ng/mL
[14] = long-term −80 °C, 12 months, MQC 200 ng/mL

In the case of O=c1c(O)ccccc1-c1ccc2ccccc2c1 [MO-OH-Nap, MO-OH-Nap tropolone], the metabolic depletion ([1]; NADPH, 60 min) is reported as under 15%, the parent drug remaining ([1]; all time points to 60 min) is reported as over 95% and the “% Accuracy” value [2, 3] is reported as 90.7 ± 5.3%. The “Measured Mean Conc.” value [2, 3] was 340.2 ± 20.1 ng/mL, the “% Accuracy” value [2, 4] was 101.9 ± 5.8% and the “Measured Mean Conc.” value [2, 4] was 3.1 ± 0.2 ng/mL. The “% Accuracy” value [2, 5] was 90.1 ± 0.6%, the “Measured Mean Conc.” value [2, 5] was 180.2 ± 1.10 ng/mL and the “% Accuracy” value [2, 6] was 101.5 ± 5.6%. For the same compound, the “Measured Mean Conc.” value [2, 6] was 380.5 ± 20.9 ng/mL, the “% Accuracy” value [2, 7] was 107.8 ± 14.8% and the “Measured Mean Conc.” value [2, 7] was 3.2 ± 0.5 ng/mL. The “% Accuracy” value [2, 8] was 95.8 ± 9.1%, the “Measured Mean Conc.” value [2, 8] was 191.6 ± 18.1 ng/mL and the “% Accuracy” value [2, 9] was 88.6 ± 4.7%. The “Measured Mean Conc.” value [2, 9] was 332.2 ± 17.6 ng/mL, the “% Accuracy” value [2, 10] was 100.5 ± 13.3% and the “Measured Mean Conc.” value [2, 10] was 3.0 ± 0.4 ng/mL. For the same compound, the “% Accuracy” value [2, 11] was 84.0 ± 0.9%, the “Measured Mean Conc.” value [2, 11] was 167.9 ± 1.8 ng/mL and the “% Accuracy” value [2, 12] was 92.7 ± 0.4%. The “Measured Mean Conc.” value [2, 12] was 347.4 ± 1.5 ng/mL, the “% Accuracy” value [2, 13] was 95.6 ± 2.4% and the “Measured Mean Conc.” value [2, 13] was 2.9 ± 0.1 ng/mL. The “% Accuracy” value [2, 14] was 99.8 ± 0.6% and the “Measured Mean Conc.” value [2, 14] was 199.5 ± 1.3 ng/mL.
